Assays:
[1] = In vitro inhibitory activity of compound against microtubule polymerization in a tubulin assembly assay; format: functional
[2] = tested on: NCI/ADR-RES; assay: In vitro inhibitory activity of compound against induced cytotoxicity in multidrug-resistant MCF-7/ADR breast cancer cell line; format: functional, cell-based, Homo sapiens
[3] = Resistance factor was expressed as the IC50 of resistance cell line / IC50 of sensitive cell line; format: functional
[4] = tested on: MCF7; assay: In vitro inhibitory activity of compound against induced cytotoxicity in MCF-7 cell line; format: functional, cell-based, Homo sapiens

| Compound | IC50 [1] | IC50 ([2]; nci/adr-res) | Resistance factor [3] | IC50 ([4]; Homo sapiens, MCF7) | IC50 ([2]; Homo sapiens, NCI/ADR-RES) | IC50 ([4]; mcf7) |
| --- | --- | --- | --- | --- | --- | --- |
| COc1ccc(C[C@H]2NC(=O)/C=C/C[C@@H](C(C)[C@H]3O[C@@H]3c3ccccc3)OC(=O)[C@H](CC(C)C)OC(=O)CCNC2=O)cc1 (single isomer, unassigned) [ARENASTATIN A] | 15.8 µM | 250 nM | 1.9 | 0.13 nM |  |  |
| COc1ccc(C[C@H]2NC(=O)/C=C/CC(C(C)C3OC3c3ccccc3)OC(=O)[C@@H](CC(C)C)OC(=O)CCNC2=O)cc1Cl (single isomer, unassigned) | 10.6 µM |  | 3.3 | 0.28 nM | 0.92 nM |  |
| COc1ccc(C[C@H]2NC(=O)/C=C/C[C@@H](C(C)[C@H]3O[C@@H]3c3ccccc3)OC(=O)C(CC(C)C)OC(=O)CCNC2=O)cc1 (single isomer, unassigned) [ARENASTATIN A] | 13.7 µM | 2400 nM | 27.3 |  |  | 88 nM |
| COc1ccc(C[C@H]2NC(=O)/C=C/C[C@@H]([C@H](C)/C=C/c3ccccc3)OC(=O)[C@@H](CC(C)C)OC(=O)CCNC2=O)cc1Cl | > 100 µM |  |  | > 25 nM | > 25 nM |  |
| COc1ccc(C[C@H]2NC(=O)/C=C/C[C@@H]([C@H](C)/C=C/c3ccccc3)OC(=O)[C@@H](CC(C)C)OC(=O)CCNC2=O)cc1 | > 100 µM |  |  | > 25 nM | > 25 nM |  |
| COc1ccc(C[C@H]2NC(=O)/C=C/C[C@@H]([C@H](C)[C@H]3O[C@@H]3c3ccccc3)OC(=O)[C@H](CC(C)C)OC(=O)[C@H](C)CNC2=O)cc1Cl [CRYPTOPHYCIN A] | 3.4 µM |  | 2 | 0.009 nM | 0.018 nM |  |
